Reference: patent publication US20080311126A1, “Antisense Oligonucleotides Directed to Ribonucleotide Reducatase R2 and Uses Thereof in Combination Therapies for the Treatment of Cancer” (Genesense Technologies, Inc, priority 2004, published 2008)
“Also recorded” adds a separate entry of the source.

Columns and labels:
Format in all cases: in vivo
[1] = tested on: HT-29 human colon cancer cells; assay: HT-29 colon tumour xenograft in CD-1 nude mice
Experimental: HT-29 human colon cancer cells (3×10^6 cells in 100 μl of PBS) were subcutaneously injected into the right flank of 6-7 weeks old female CD-1 nude mice. After the size of tumour reached an approximate volume of 50 mm^3, 4 days post tumour cell injection, mitomycin C was administered by bolus infusion into the tail vein at days 4, 11 and 18 with a dose of 3.5 mg/kg/week. Antitumour effect of mitomycin C was further compared to that of SEQ ID NO:1 in combination with mitomycin C. SEQ ID NO:1 was administered by bolus infusion into the tail vein every day at 6 mg/kg and mitomycin C was administered intravenously at days 4, 11 and 18 with a dose of 3.5 mg/kg/week, one hour after the treatments with SEQ ID NO:1. Control animals received saline alone for the same period as SEQ ID NO:1. All treatments were stopped at day 22. A day after the last treatment, tumours were excised from the animals and their weights were measured.
HT-29 human colon cancer cells (3×10^6 cells in 100 μl of PBS) were subcutaneously injected into the right flank of 5-6 week old female CD-1 nude mice. After the size of tumour reached an approximate volume of 100 mm^3, 7 days post tumour cell injection, SEQ ID NO:1 was administered by bolus infusion into the tail vein every other day at 10 mg/kg. Control animals received saline alone for the same period. Antitumour effect of SEQ ID NO:1 was further compared to that of CPT-11 alone or that of SEQ ID NO:1 in combination with CPT-11. CPT-11 was administered intraperitoneally for 5 days in a row from […] with a dose of 20 mg/kg in 100 μl saline. All treatments were stopped at day 32. A day after the last treatment, tumours were excised from the animals and their weights were measured.
HT-29 human colon cancer cells (3×10^6 cells in 100 μl of PBS) were subcutaneously injected into the right flank of 6-7 week old female CD-1 nude mice. Treatments started at day 5 post tumour cell injection, SEQ ID NO:1 and 5-FU were administered as outlined below: • Groups and treatment: • Group 1. Saline treated group: saline:0.1 ml/2 days, i.v.; • Group 2. SEQ ID NO:1 treated group: 10 mg/kg/2 days in 100 μL saline, i.v.; • Group 3. 5-FU treated group:13 mg/kg/5 days/week (one week on and one week off), i.v.; • Group 4. SEQ ID NO:1 plus 5-FU treated group.
HT-29 human colon cancer cells (3×10^6 cells in 100 μl of PBS) were subcutaneously injected into the right flank of 5-6 week old female CD-1 nude mice. Treatments started 4 days post tumour cell injection, SEQ ID NO: 1 and Capecitabine were administered as outlined below: • Group and Treatment: • Group 1: treated with 0.2 ml vehicle solution for capecitabine, o.p.; • Group 2: treated with 0.1 ml saline, i.v.; • Group 3: treated with 359 mg/kg/day×5/w Capecitabine in 0.2 ml vehicle solution, o.p.; • Group 4: treated with 10 mg/kg/2 days SEQ ID NO:1 in 0.1 ml saline i.v.; • Group 5: treated with 10 mg/kg/2 days SEQ ID NO:1 in 0.1 ml saline, i.v. plus 359 mg/kg/day×5/w capecitabine in 0.2 ml vehicle solution, o.p.

[2] = tested on: MDA-CDDP-S4 human Cisplatin-resistant breast adenocarcinoma cells; assay: MDA-CDDP-S4 Cisplatin-resistant breast adenocarcinoma, fat pad injection in SCID mice; details: for Tumour weight as % of saline control: MDA-CDDP-S4 (breast), Cisplatin resistance, SCID
Experimental: MDA-CDDP-S4 human in vivo-selected Cisplatin-resistant breast adenocarcinoma cells (4×10^6 cells in 100 μl of PBS) were injected into the fat pad (inside of right leg) of 6-7 weeks old female SCID mice. After the size of tumour reached an approximate volume of 100 mm^3, 7 days post tumour cell injection, SEQ ID NO:1 was administered by bolus infusion into the tail vein every other day at 10 mg/kg 9 times. Control animals received saline alone for the same period. Antitumour effect of SEQ ID NO: 1 was further compared to that of Cisplatin or Taxol alone. Cisplatin was adminstered intravenously once a week for three weeks at a dose of 4 mg/kg. Taxol was administered intravenously once a week for three weeks at a dose of 10 mg/kg. Antitumour activities were estimated by the inhibition of tumour volume, which was measured with caliper. Each point represents mean tumour volume calculated from 10 animals per experimental group. […] As expected, treatment with Cisplatin during the same period was ineffective against Cisplatin-resistant tumour.
MDA-CDDP-S4 human in vivo-selected Cisplatin-resistant breast adenocarcinoma cells (4×10^6 cells in 100 μl of PBS) were injected into the fat pad (inside of right leg) of 6-7 weeks old female CB-17 SCID mice. After the size of tumour reached an approximate volume of 100 mm^3, 9 days post tumour cell injection, SEQ ID NO:1 was administered by bolus infusion into the tail vein every other day at 10 mg/kg. Control animals received saline alone for the same period. Antitumour effect of SEQ ID NO:1 was further compared to that of Taxol alone and in combination. Taxol was administered i.p. once a week at a dose of 10 mg/kg. Antitumour activities were estimated by the inhibition of tumour volume FIG. 22A), which was measured with calipers. Each point represents mean tumour volume calculated from 10 animals per experimental group. Animals were sacrificed and tumour weights taken at the end of the study (FIG. 22C). […] This study was repeated with similar results (FIG. 22B).

Mouse Fibrosarcoma = assay: Tumour growth assay, mouse fibrosarcoma in C3H mice

GGCTAAATCGCTCCACCAAG (chemistry not given here) [SEQ ID NO: 1, antisense oligonucleotide that hybridizes to the coding region of human ribonucleotide reductase R2 mRNA]
antitumour effect (tumour weight) ([1]; Example 12.2, SEQ ID NO:1 10 mg/kg every other day i.v., CPT-11 20 mg/kg i.p. 5 days): significant delay of tumour growth; also recorded: superior to the inhibitory effects observed with CPT-11 alone
Tumour weight as % of saline control ([1]; HT-29 (colon), Mouse CD-1, CPT-11 study): 19%
antitumour effect (tumour volume) ([2]; Example 13.3, SEQ ID NO:1 10 mg/kg 9 times, Cisplatin 4 mg/kg, Taxol 10 mg/kg i.v. weekly for three weeks): significant reduction of tumour weight
antitumour effect (tumour volume, tumour weight) ([2]; Example 13.4, CB-17 SCID mice, SEQ ID NO:1 10 mg/kg every other day, Taxol 10 mg/kg i.p. weekly): significant reduction of tumour weight; also recorded: superior to the inhibitory effects observed with Taxol
Tumour weight as % of saline control ([2]; Taxol combination study, first of two value columns): 18%
Tumour weight as % of saline control ([2]; Taxol combination study, second of two value columns): 41%
Tumour weight as % of saline control ([2]; study with Taxol and Cisplatin alone): 32%
Inhibition of tumour volume (Mouse Fibrosarcoma; C3H mice, Day 15 after tumour implantation): mice by approximately 80% on Day 15
dose dependence of decrease in tumour weight (Mouse Fibrosarcoma; C3H mice, doses of 0.5 to 30 mg/kg): Dose-dependent decrease in tumour
Inhibition of tumour weight (Mouse Fibrosarcoma; Mouse Fibrosarcoma): approximately 80%
